Reference: PMC7509492, “To What Extent Do Fluorophores Bias the Biological Activity of Peptides? A Practical Approach Using Membrane-Active Peptides as Models” (Frontiers in Bioengineering and Biotechnology, 2020)
Peptide text beside a SMILES is read from it. * marks the point of attachment. X1 = CC[N+]1=C(C=CC=C2N(CCCCCC(=O)*)c3ccccc3C2(C)C)C(C)(C)c2ccccc21; 5FAM = O=C1OC2(c3ccc(O)cc3Oc3cc(O)ccc32)c2ccc(C(=O)*)cc21

Experiments:
human RBCs = experiment: Hemolytic activity on human red blood cells; conditions: Table 1, human RBCs in 1x PBS pH 7.4, 24 h, 37°C, peptide 0.01-100 μM, mean ± SD, triplicates of three independent experiments; for Hemolytic activity HC10: concentration causing 10% hemolysis, hemoglobin absorbance 570 nm; for Hemolytic activity HC50: concentration causing 50% hemolysis; for Hemolytic activity HC50 / Hemolytic activity HC90: absorbance 570 nm; for Hemolytic activity HC90: concentration causing 90% hemolysis
Procedure: Fresh human blood was collected in EDTA tubes and centrifuged at 1,000 × g for 10 min at 4°C. The supernatant was discharged, and the pellet containing RBCs was washed three times with 1× PBS (137 mM NaCl, 2.7 mM KCl, 10 mM Na2HPO4, and 1.8 mM KH2PO4, pH 7.4) and resuspended in 1× PBS to obtain a 2.0% (v/v) suspension. Then, RBCs were added to centrifuge tubes containing two-fold serially diluted peptides to a final concentration ranging from 0.01 to 100 μM. The suspension was incubated for 24 h at 37°C with gentle stirring. After that, samples were centrifuged for 2 min at 1,000 × g. Supernatants were transferred to 96-well plates, and the hemoglobin released measured by absorbance at 570 nm in an Infinite F200 TECAN plate reader. 1× PBS with no peptides and Triton X-100 at 1 and 4% (v/v) were used as negative and positive controls, respectively. Hemolytic activity (%) was determined using the following equation:
(2) Hemolyticactivity(%)=AbsPT-AbsNC/AbsPC-AbsNC
where, AbsPT is the absorbance of treated samples, AbsNC is the absorbance from negative control, and AbsPC absorbance from positive control.
HC50 values were determined using the GraphPad Prism 7.0 software using a log(inhibitor) vs. normalized response. Experiments were performed on different days using independent blood donors.
(range from 0.01 to 100 μM). The percentage of hemolysis was determined by the absorbance of hemoglobin released into the supernatant. Melittin was included as a control peptide with hemolytic properties. The values were obtained from triplicates of three independent experiments. Error bars, S.D.

MDA-MB-231 cells = experiment: CellTiter-Blue cell viability assay, MDA-MB-231; assay type: cell-based, human; conditions: peptide 0.01-100 μM, mean ± SD, triplicates of three independent experiments; for Cytotoxicity MDA-MB-231 cells IC10: Table 1, concentration causing 10% cell death; for Cytotoxicity MDA-MB-231 cells IC10 / IC90: 24 h; for IC50: Table 1, 24 h, read-out: Cytotoxicity MDA-MB-231 cells IC50; for IC90: Table 1, concentration causing 90% cell death, read-out: Cytotoxicity MDA-MB-231 cells IC90
Procedure: (§1) Peptides cytotoxicity against both HBEC-5i and MDA-MB-231 cells was determined using CellTiter-Blue® Cell Viability Assay, according to the manufacturer’s instructions. The assay is based on the ability of viable cells to reduce resazurin into resorufin, a highly fluorescent metabolite. […] Therefore, using this methodology is possible to distinguish between metabolic and non-metabolic cells and indirectly determine the cytotoxicity of peptides. Briefly, HBEC-5i and MDA-MB-231 cells were carefully detached from T-flasks, as described previously, and seeded 15,000/100 and 10,000/100 μL, respectively, in 96-well plates (Corning, United States) and incubated for 24 h. After medium removal, cells were washed two times with 1× PBS and 100 μL of previously diluted peptides (range between 0.01 and 100 μM) in either DMEM or DMEM:F12 medium were added to MDA-MB-231 or HBEC-5i cells, respectively. After 24 h incubation, cells were washed two times with 1× PBS, and 20 μL of CellTiter-Blue® Reagent (diluted in 100 μL of medium) was added to each well and incubated for 3 h in a humidified atmosphere of 5% CO2 at 37°C. The fluorescence intensity was measured at λ with an excitation of 560 nm and maximum emission at 590 nm using the infinite F200 TECAN plate reader. Medium and 1% Triton X-100-containing medium were used as positive controls (100% cell viability) and negative controls (0% cell viability), respectively. Cell viability (%) was determined using the following equation:
(§2) (7) CellViability=FP-FNC/FPC-FNC×100
(§3) Fp is the fluorescence intensity of peptide-treated cells, FNC is the fluorescence intensity for negative controls, and FPC is the fluorescence intensity for positive controls.
(§4) Experiments were performed on different days using independently grown cell cultures.
(§5) FIGURE 4 In vitro cytotoxicity unlabeled- and labeled-peptides. (A,B) Cytotoxicity against HBEC-5i cells. (C,D) Cytotoxicity against MDA-MB-231 cells. 1.5 × 10^4 and 1.0 × 10^4 cells of HBEC-5i and MDA-MB-231 cells, respectively, were incubated with various concentrations of peptides (range from 0.01 to 100 μM). The percentage of viability was determined using CellTiter® Blue reagent assay. […] Error bars, S.D.

[1] = CellTiter-Blue cell viability assay, MDA-MB-231; assay type: cell-based, human; conditions: human, MDA-MB-231 cells, mean ± SD, triplicates of three independent experiments; for IC90 at 24 h: Table 1, concentration causing 90% cell death, peptide 0.01-100 μM, read-out: Cytotoxicity MDA-MB-231 cells IC90; for IC50 at 24 h: Table 1, peptide 0.01-100 μM, read-out: Cytotoxicity MDA-MB-231 cells IC50
Procedure: as §1, §2, §3, §4, §5

Molecule	Hemolytic activity HC10 (human RBCs) [µM]	Hemolytic activity HC50 (human RBCs) [µM]	Hemolytic activity HC90 (human RBCs) [µM]	Cytotoxicity MDA-MB-231 cells IC10 (MDA-MB-231 cells) [µM]	IC90 at 24 h [1] [µM]	IC50 at 24 h [1] [µM]	IC50 (MDA-MB-231 cells) [µM]	IC90 (MDA-MB-231 cells) [µM]
N=C(N)NCCC[C@H](NC(=O)[C@H](CCCNC(=N)N)NC(=O)[C@@H]1CCCN1C(=O)[C@H](CCCNC(=N)N)NC(=O)[C@H](CCCNC(=N)N)NC(=O)[C@H](CCCNC(=N)N)NC(=O)[C@H](Cc1c[nH]c2ccccc12)NC(=O)[C@H](CCCNC(=N)N)NC(=O)[C@H](CCCNC(=N)N)NC(=O)[C@H](CCCNC(=N)N)NC(=O)[C@H](CCCNC(=N)N)NC(=O)[C@H](CCCNC(=N)N)NC(=O)[C@H](Cc1c[nH]c2ccccc12)NC(=O)[C@H](CCCNC(=N)N)NC(=O)[C@H](CCCNC(=N)N)NC(=O)[C@H](Cc1ccc(O)cc1)NC(=O)[C@H](CCCNC(=N)N)NC(=O)[C@H](CCCNC(=N)N)NC(=O)[C@H](CCCNC(=N)N)NC(=O)[C@H](Cc1c[nH]c2ccccc12)NC(=O)c1ccc2c(c1)C(=O)OC21c2ccc(O)cc2Oc2cc(O)ccc21)C(N)=O [CF-vCPP2319] (5FAM-WRRRYRRWRRRRRWRRRPRR-NH2)	>200	>200	>200	1.26 ± 0.24	18.8 ± 1.87	4.72 ± 0.94	–	–
CC[N+]1=C(C=CC=C2N(CCCCCC(=O)N[C@@H](Cc3c[nH]c4ccccc34)C(=O)N[C@@H](CCCNC(=N)N)C(=O)N[C@@H](CCCNC(=N)N)C(=O)N[C@@H](CCCNC(=N)N)C(=O)N[C@@H](Cc3ccc(O)cc3)C(=O)N[C@@H](CCCNC(=N)N)C(=O)N[C@@H](CCCNC(=N)N)C(=O)N[C@@H](Cc3c[nH]c4ccccc34)C(=O)N[C@@H](CCCNC(=N)N)C(=O)N[C@@H](CCCNC(=N)N)C(=O)N[C@@H](CCCNC(=N)N)C(=O)N[C@@H](CCCNC(=N)N)C(=O)N[C@@H](CCCNC(=N)N)C(=O)N[C@@H](Cc3c[nH]c4ccccc34)C(=O)N[C@@H](CCCNC(=N)N)C(=O)N[C@@H](CCCNC(=N)N)C(=O)N[C@@H](CCCNC(=N)N)C(=O)N3CCC[C@H]3C(=O)N[C@@H](CCCNC(=N)N)C(=O)N[C@@H](CCCNC(=N)N)C(N)=O)c3ccccc3C2(C)C)C(C)(C)c2ccccc21 [Q570-vCPP2319] (X1-WRRRYRRWRRRRRWRRRPRR-NH2)	–	–	–	1.14 ± 0.34	16 ± 1.94	4.26 ± 1.03	–	–
TF3-WRRRYRRWRRRRRWRRRPRR-amide [TF3-vCPP2319, vCPP2319 labeled at the N-terminus with tide fluor 3]	2.83 ± 0.97	>200	>200	1.05 ± 0.21	–	–	4.3 ± 0.03	17 ± 1.58
CC[C@H](C)[C@H](NC(=O)[C@H](CCCCN)NC(=O)[C@H](CCCCN)NC(=O)[C@H](CC(C)C)NC(=O)[C@H](CCCNC(=N)N)NC(=O)[C@H](CCCCN)NC(=O)[C@H](CCCCN)NC(=O)CCCCCN1C(=CC=CC2=[N+](CC)c3ccccc3C2(C)C)C(C)(C)c2ccccc21)C(=O)N[C@@H](Cc1ccccc1)C(=O)N[C@@H](CCCCN)C(=O)N[C@@H](CCCCN)C(=O)N1CCC[C@H]1C(=O)N[C@@H](CCSC)C(=O)N[C@H](C(=O)N[C@H](C(=O)NCC(=O)N[C@H](C(=O)N[C@H](C(=O)N[C@H](C(=O)N1CCC[C@H]1C(=O)N[C@@H](Cc1ccccc1)C(N)=O)[C@@H](C)CC)[C@@H](C)O)C(C)C)[C@@H](C)CC)C(C)C [Q570-Ctn[15-34]] (X1-KKRLKKIFKKPMVIGVTIPF-NH2)	–	–	–	3.08 ± 1.22	> 200	144 ± 4.21	–	–
TF3-KKRLKKIFKKPMVIGVTIPF-amide [TF3-Ctn[15-34], Ctn[15-34] labeled at the N-terminus with tide fluor 3]	102.0 ± 6.20	>200	>200	2.57 ± 1.37	–	–	123 ± 3.84	> 200
